Laboratory results: patent US12371428B2 (Exelixis, Inc., priority 2019, dated 2025)
Where a name gives a salt, the structure may show the parent alone.

Assays:
[1] = target: Human MER (residues 528-999) (Homo sapiens (Human), UniProt Q12866); assay: Human Mer kinase assay, HTRF KinEase (Example C-2); format: biochemical; conditions: protocol of Example C-2 (other compounds)
Summary of the method: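 HTRF KinEase TK assay with MER 528-999 (1 ng/well) in enzymatic buffer plus 5 mM MgCl2 and 1 mM DTT, biotinylated peptide substrate and ATP at Km (40 μM), 3% DMSO final, 60 min at room temperature. Stopped with EDTA detection mix (SA-XL665, TK antibody-Eu3+), read at 665/620 nm after 60 min; IC50 from 10-point 4-parameter fit, normalized to DMSO and 1 μM reference.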

[2] = target: Human MET (residues 956-1390) (Homo sapiens (Human), UniProt P08581); assay: Human Met kinase assay, HTRF KinEase (Example D-2); format: biochemical; conditions: protocol of Example D-2 (other compounds); read-out: c-Met IC50
Sequence of Human MET (residues 956-1390) (P08581 956-1390): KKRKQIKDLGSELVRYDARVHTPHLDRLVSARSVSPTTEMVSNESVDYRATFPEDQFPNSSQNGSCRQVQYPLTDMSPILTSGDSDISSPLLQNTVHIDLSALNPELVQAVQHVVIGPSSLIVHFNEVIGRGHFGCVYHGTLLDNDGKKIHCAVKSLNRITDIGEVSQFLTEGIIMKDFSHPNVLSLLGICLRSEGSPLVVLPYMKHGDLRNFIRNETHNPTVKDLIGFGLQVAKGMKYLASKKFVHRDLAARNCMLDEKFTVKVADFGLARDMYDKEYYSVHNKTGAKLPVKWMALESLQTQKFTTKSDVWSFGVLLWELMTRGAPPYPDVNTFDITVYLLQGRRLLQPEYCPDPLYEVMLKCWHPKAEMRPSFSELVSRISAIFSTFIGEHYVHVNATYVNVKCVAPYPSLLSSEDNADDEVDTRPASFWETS
Summary of the method: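 HTRF KinEase assay on MET residues 956-1390 (0.1 ng/well) in buffer with 5 mM MgCl2, 1 mM DTT and 1 mM MnCl2, with biotinylated peptide substrate, ATP at Km, 10 compound concentrations and 3% DMSO final, run 40 min at room temperature. The […] signal was normalized to DMSO and to 1 μM reference compound, and IC50 came from a 4-parameter logistic fit.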

[3] = target: Met (phospho-Met, HGF-stimulated PC-3 prostate cancer cells) (Homo sapiens (Human), UniProt P08581); assay: Met autophosphorylation ELISA in PC-3 cells (Example F); format: cell-based; conditions: cellular activity; Met autophosphorylation ELISA in PC-3 cells; read-out: c-Met IC50
Sequence of Met (phospho-Met, HGF-stimulated PC-3 prostate cancer cells) (P08581 25-1390): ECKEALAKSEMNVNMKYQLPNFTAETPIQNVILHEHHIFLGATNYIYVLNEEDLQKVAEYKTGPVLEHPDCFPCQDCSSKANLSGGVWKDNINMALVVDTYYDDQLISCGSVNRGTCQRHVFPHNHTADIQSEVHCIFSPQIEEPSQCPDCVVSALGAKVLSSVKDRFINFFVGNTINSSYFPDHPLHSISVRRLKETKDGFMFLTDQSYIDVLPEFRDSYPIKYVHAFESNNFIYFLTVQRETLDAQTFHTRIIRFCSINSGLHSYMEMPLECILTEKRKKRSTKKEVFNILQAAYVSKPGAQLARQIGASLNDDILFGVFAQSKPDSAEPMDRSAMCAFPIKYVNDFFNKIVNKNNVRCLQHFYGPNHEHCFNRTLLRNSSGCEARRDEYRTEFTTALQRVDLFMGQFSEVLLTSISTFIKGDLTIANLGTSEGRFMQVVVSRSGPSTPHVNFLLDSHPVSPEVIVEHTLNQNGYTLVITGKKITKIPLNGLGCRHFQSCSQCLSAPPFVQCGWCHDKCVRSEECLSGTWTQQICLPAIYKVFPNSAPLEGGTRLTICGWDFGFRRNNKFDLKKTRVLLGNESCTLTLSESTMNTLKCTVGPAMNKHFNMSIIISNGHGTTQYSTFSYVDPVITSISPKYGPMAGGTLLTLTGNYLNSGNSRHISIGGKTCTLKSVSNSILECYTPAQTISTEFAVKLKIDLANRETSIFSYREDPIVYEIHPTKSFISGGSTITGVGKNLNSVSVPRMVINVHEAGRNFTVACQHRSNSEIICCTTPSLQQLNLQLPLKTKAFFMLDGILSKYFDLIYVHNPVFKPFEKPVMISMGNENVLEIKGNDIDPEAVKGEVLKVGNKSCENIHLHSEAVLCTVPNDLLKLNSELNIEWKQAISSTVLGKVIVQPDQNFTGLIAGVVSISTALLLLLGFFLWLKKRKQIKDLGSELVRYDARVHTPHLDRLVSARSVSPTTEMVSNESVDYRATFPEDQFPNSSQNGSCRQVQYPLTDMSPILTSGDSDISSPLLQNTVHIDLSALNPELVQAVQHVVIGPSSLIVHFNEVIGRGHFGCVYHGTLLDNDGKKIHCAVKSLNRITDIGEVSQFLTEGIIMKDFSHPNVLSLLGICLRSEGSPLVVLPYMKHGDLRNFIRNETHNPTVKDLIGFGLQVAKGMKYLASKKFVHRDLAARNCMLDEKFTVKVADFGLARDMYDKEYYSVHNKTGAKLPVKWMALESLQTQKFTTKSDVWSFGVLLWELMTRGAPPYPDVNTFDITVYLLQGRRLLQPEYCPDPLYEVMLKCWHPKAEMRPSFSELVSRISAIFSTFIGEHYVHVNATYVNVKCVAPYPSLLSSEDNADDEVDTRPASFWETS
Summary of the method: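 Sandwich ELISA for phospho-Met (panTyr) in PC-3 lysates. Cells starved 3 h serum-free, compound 1 h (8-pt curve, 0.3% DMSO), HGF 100 ng/mL 10 min. 100% = HGF + DMSO; 0% = HGF + reference inhibitor. IC50 by 4-parameter fit.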

[4] = target: KDR (phospho-KDR, VEGF165-stimulated HUVEC cells) (Homo sapiens (Human), UniProt P35968); assay: KDR autophosphorylation ELISA in HUVEC cells (Example G); format: cell-based; conditions: cellular activity; KDR autophosphorylation ELISA in HUVEC cells
Sequence of KDR (phospho-KDR, VEGF165-stimulated HUVEC cells) (P35968 20-1356): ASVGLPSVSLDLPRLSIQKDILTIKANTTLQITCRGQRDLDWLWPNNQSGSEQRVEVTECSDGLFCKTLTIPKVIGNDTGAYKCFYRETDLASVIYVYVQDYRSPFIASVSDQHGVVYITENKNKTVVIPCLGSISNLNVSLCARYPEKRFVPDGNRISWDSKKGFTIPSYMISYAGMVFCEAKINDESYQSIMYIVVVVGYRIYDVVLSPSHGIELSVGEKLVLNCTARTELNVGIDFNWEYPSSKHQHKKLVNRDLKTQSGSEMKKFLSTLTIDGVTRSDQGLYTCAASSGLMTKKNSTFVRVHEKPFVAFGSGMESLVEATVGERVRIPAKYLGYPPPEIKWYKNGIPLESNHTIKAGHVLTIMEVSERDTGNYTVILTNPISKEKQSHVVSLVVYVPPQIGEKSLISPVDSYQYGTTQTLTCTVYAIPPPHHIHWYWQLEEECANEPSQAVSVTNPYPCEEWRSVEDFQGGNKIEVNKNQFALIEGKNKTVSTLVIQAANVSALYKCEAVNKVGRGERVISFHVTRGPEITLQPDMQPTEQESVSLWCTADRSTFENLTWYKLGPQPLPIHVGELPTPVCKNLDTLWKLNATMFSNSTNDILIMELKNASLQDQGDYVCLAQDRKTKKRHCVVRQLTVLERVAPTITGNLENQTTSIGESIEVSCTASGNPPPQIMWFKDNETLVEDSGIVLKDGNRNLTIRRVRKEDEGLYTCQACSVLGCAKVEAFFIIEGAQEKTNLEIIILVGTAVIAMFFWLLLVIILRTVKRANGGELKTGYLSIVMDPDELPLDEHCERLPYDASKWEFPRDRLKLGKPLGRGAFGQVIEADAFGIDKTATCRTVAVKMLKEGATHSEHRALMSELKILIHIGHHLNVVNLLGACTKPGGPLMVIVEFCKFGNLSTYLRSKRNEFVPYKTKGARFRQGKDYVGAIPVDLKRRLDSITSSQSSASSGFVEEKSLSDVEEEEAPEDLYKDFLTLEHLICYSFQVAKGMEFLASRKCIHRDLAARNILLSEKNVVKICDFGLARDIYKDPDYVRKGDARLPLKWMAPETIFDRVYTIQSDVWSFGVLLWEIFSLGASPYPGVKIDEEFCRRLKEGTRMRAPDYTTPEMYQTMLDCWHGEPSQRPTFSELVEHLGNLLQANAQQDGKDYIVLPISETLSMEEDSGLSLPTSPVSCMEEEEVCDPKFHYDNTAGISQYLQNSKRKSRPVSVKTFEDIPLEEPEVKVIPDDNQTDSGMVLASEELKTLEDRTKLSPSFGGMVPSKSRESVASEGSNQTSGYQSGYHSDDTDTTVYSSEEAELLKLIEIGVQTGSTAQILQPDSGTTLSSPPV
Summary of the method: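 Cells seeded, grown 24 h at 37 °C, starved 24 h serum-free; cpd 8-pt curve, 0.3% DMSO, 1 h; VEGF165 100 ng/mL, 5 min; cold PBS wash, lysis with orthovanadate and protease/phosphatase inhibitors; pKDR ELISA; IC50 by 4-parameter logistic regression.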

Sequence of Human MER (residues 528-999) (Q12866 528-999): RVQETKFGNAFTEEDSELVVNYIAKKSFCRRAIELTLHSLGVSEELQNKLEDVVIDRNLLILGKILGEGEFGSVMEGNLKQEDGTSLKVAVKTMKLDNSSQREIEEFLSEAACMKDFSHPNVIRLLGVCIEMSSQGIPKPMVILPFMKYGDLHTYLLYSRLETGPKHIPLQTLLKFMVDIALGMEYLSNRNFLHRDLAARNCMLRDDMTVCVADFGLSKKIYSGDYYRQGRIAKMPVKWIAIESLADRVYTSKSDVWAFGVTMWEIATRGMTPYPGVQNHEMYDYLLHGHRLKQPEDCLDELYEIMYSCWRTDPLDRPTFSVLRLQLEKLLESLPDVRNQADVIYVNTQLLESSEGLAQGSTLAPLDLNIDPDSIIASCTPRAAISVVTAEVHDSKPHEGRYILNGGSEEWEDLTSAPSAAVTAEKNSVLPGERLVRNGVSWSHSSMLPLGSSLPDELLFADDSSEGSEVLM

SMILES: Cc1nc(C)c(-c2ccc(F)cc2)c(O)c1C(=O)Nc1ccc(Oc2ccnc3cc(OCc4ccccc4)cnc23)c(F)c1 [Compound 277, 5-(4-Fluorophenyl)-N-[3-fluoro-4-[(7-phenylmethoxy-1,5-naphthyridin-4-yl)oxy]phenyl]-4-hydroxy-2,6-dimethylpyridine-3-carboxamide]
- IC50 [1]: < 0.1 µM
- IC50 [2]: < 0.1 µM
- IC50 [3]: < 0.1 µM
- IC50 [4]: < 0.1 µM

SMILES: COc1cc2nccc(Oc3ccc(NC(=O)c4cn(C)cc(-c5c(C)cc(F)cc5C)c4=O)cc3F)c2nc1OC [Compound 268, N-[4-[(6,7-Dimethoxy-1,5-naphthyridin-4-yl)oxy]-3-fluorophenyl]-5-(4-fluoro-2,6-dimethylphenyl)-1-methyl-4-oxopyridine-3-carboxamide]
- IC50 [1]: < 0.1 µM
- IC50 [2]: < 0.1 µM
- IC50 [3]: < 0.1 µM
- IC50 [4]: > 0.3 µM

SMILES: Cc1ncc(C(=O)Nc2ccc(Oc3ccnc4ccc(OCCN5CCOCC5)nc34)c(F)c2)c(O)c1-c1ccc(F)cc1 [Compound 352, N-[3-fluoro-4-[[6-(2-morpholin-4-ylethoxy)-1,5-naphthyridin-4 yl]oxy]phenyl]-5-(4-fluorophenyl)-4-hydroxy-6-methylpyridine-3-carboxamide]
- IC50 [1]: < 0.1 µM
- IC50 [2]: < 0.1 µM
- IC50 [3]: < 0.1 µM
- IC50 [4]: < 0.1 µM

SMILES: COc1cc2nccc(Oc3ccc(NC(=O)c4c(C)cc(C)n(-c5ccc(F)cc5)c4=O)cc3F)c2nc1OC [Compound 279, N-[4-[(6,7-Dimethoxy-1,5-naphthyridin-4-yl)oxy]-3-fluorophenyl]-1-(4-fluorophenyl)-4,6-dimethyl-2-oxopyridine-3-carboxamide]
- IC50 [1]: < 0.1 µM
- IC50 [2]: < 0.1 µM
- IC50 [3]: < 0.1 µM
- IC50 [4]: < 0.1 µM

SMILES: COc1cc2nccc(Oc3ccc(NC(=O)c4ccnn(-c5ccc(F)cc5)c4=O)cc3F)c2nc1OC [Compound 386, N-[4-[(6,7-dimethoxy-1,5-naphthyridin-4-yl)oxy]-3-fluorophenyl]-2-(4-fluorophenyl)-3-oxopyridazine-4-carboxamide]
- IC50 [1]: < 0.1 µM
- IC50 [2]: < 0.1 µM
- IC50 [3]: < 0.1 µM
- IC50 [4]: < 0.1 µM

SMILES: COc1cc2nccc(Oc3ccc(NC(=O)c4cn(C)c(C)c(-c5ccc(F)cc5)c4=O)c(F)c3F)c2nc1OC [Compound 390, N-[4-[(6,7-dimethoxy-1,5-naphthyridin-4-yl)oxy]-2,3-difluorophenyl]-5-(4-fluorophenyl)-1,6-dimethyl-4-oxopyridine-3-carboxamide]
- IC50 [1]: < 0.1 µM
- IC50 [2]: < 0.1 µM
- IC50 [3]: < 0.1 µM
- IC50 [4]: < 0.1 µM

SMILES: COCc1c(-c2ccc(F)cc2)c(=O)c(C(=O)Nc2ccc(Oc3ccnc4cc(OC)cnc34)c(F)c2)cn1C [Compound 270, N-[3-Fluoro-4-[(7-methoxy-1,5-naphthyridin-4-yl)oxy]phenyl]-5-(4-fluorophenyl)-6-(methoxymethyl)-1-methyl-4-oxopyridine-3-carboxamide]
- IC50 [1]: < 0.1 µM
- IC50 [2]: < 0.1 µM
- IC50 [3]: 0.1 to 0.3 µM
- IC50 [4]: > 0.3 µM

SMILES: COc1cc2nccc(Oc3ccc(NC(=O)c4cn(C)cc(-c5ccccc5)c4=O)cc3)c2nc1OC [Compound 39, N-[4-[(6,7-Dimethoxy-1,5-naphthyridin-4-yl)oxy]phenyl]-1-methyl-4-oxo-5-phenylpyridine-3-carboxamide hydrochloride]
- IC50 [1]: < 0.1 µM
- IC50 [2]: < 0.1 µM
- IC50 [3]: < 0.1 µM
- IC50 [4]: < 0.1 µM

SMILES: COc1ccc2nccc(Oc3ccc(NC(=O)c4nccn(-c5ccc(F)cc5)c4=O)cc3)c2n1 [Compound 383, 4-(4-fluorophenyl)-N-[4-[(6-methoxy-1,5-naphthyridin-4-yl)oxy]phenyl]-3-oxopyrazine-2-carboxamide]
- IC50 [1]: < 0.1 µM
- IC50 [2]: < 0.1 µM
- IC50 [3]: < 0.1 µM
- IC50 [4]: > 0.3 µM

SMILES: Cc1cc(C)n(-c2ccc(F)cc2)c(=O)c1C(=O)Nc1ccc(Oc2ccnc3cccnc23)c(F)c1 [Compound 295, N-[3-Fluoro-4-(1,5-naphthyridin-4-yloxy)phenyl]-1-(4-fluorophenyl)-4,6-dimethyl-2-oxopyridine-3-carboxamide]
- IC50 [1]: < 0.1 µM
- IC50 [2]: < 0.1 µM
- IC50 [3]: < 0.1 µM
- IC50 [4]: < 0.1 µM

SMILES: COc1cc2nccc(Oc3ccc(NC(=O)c4cn(C)c(C)c(-c5ccc(F)cc5)c4=O)c(F)c3)c2nc1OC [Compound 389, N-[4-[(6,7-dimethoxy-1,5-naphthyridin-4-yl)oxy]-2-fluorophenyl]-5-(4-fluorophenyl)-1,6-dimethyl-4-oxopyridine-3-carboxamide]
- IC50 [1]: < 0.1 µM
- IC50 [2]: > 0.3 µM
- IC50 [3]: < 0.1 µM
- IC50 [4]: > 0.3 µM

SMILES: COc1ccc2nccc(Oc3ccc(NC(=O)c4cnc(C)c(-c5ccc(F)cc5)c4O)cc3)c2n1 [Compound 342, 5-(4-fluorophenyl)-4-hydroxy-N-[4-[(6-methoxy-1,5-naphthyridin-4-yl)oxy]phenyl]-6-methylpyridine-3-carboxamide]
- IC50 [1]: < 0.1 µM
- IC50 [2]: < 0.1 µM
- IC50 [3]: < 0.1 µM
- IC50 [4]: < 0.1 µM

SMILES: Cc1ccc2nccc(Oc3ccc(NC(=O)c4c(C)cc(C)n(-c5ccc(F)cc5)c4=O)cc3F)c2n1 [Compound 297, N-[3-Fluoro-4-[(6-methyl-1,5-naphthyridin-4-yl)oxy]phenyl]-1-(4-fluorophenyl)-4,6-dimethyl-2-oxopyridine-3-carboxamide]
- IC50 [1]: < 0.1 µM
- IC50 [2]: < 0.1 µM
- IC50 [3]: < 0.1 µM
- IC50 [4]: < 0.1 µM

SMILES: COc1cnc2c(Oc3ccc(NC(=O)c4c(C)cc(C)n(-c5ccc(F)cc5)c4=O)cc3)ccnc2c1 [Compound 289, 1-(4-Fluorophenyl)-N-[4-[(7-methoxy-1,5-naphthyridin-4-yl)oxy]phenyl]-4,6-dimethyl-2-oxopyridine-3-carboxamide]
- IC50 [1]: < 0.1 µM
- IC50 [2]: < 0.1 µM
- IC50 [3]: < 0.1 µM
- IC50 [4]: < 0.1 µM

SMILES: COc1cc2nccc(Oc3ccc(NC(=O)c4cccn(-c5ccc(F)cc5)c4=O)cc3F)c2nc1OC [Compound 293, N-[4-[(6,7-Dimethoxy-1,5-naphthyridin-4-yl)oxy]-3-fluorophenyl]-1-(4-fluorophenyl)-2-oxopyridine-3-carboxamide]
- IC50 [1]: < 0.1 µM
- IC50 [2]: < 0.1 µM
- IC50 [3]: < 0.1 µM
- IC50 [4]: < 0.1 µM

SMILES: CCn1cc(C(=O)Nc2ccc(Oc3ccnc4cc(OC)c(OC)nc34)c(F)c2)c(=O)c(-c2ccc(F)cc2)c1CO [Compound 271, N-[4-[(6,7-Dimethoxy-1,5-naphthyridin-4-yl)oxy]-3-fluorophenyl]-1-ethyl-5-(4-fluorophenyl)-6-(hydroxymethyl)-4-oxopyridine-3-carboxamide]
- IC50 [1]: < 0.1 µM
- IC50 [2]: < 0.1 µM
- IC50 [3]: < 0.1 µM
- IC50 [4]: 0.1 to 0.3 µM

SMILES: Cc1ccc(C(=O)Nc2ccc(Oc3ccnc4ccc(OCCN5CCOCC5)nc34)c(F)c2)c(=O)n1-c1ccc(F)cc1 [Compound 351, N-[3-fluoro-4-[[6-(2-morpholin-4-ylethoxy)-1,5-naphthyridin-4-yl]oxy]phenyl]-1-(4-fluorophenyl)-6-methyl-2-oxopyridine-3-carboxamide]
- IC50 [1]: < 0.1 µM
- IC50 [2]: < 0.1 µM
- IC50 [3]: < 0.1 µM
- IC50 [4]: < 0.1 µM

SMILES: Cc1ccc(C(=O)Nc2ccc(Oc3ccnc4cc(OCc5ccccc5)cnc34)c(F)c2)c(=O)n1-c1ccc(F)cc1 [Compound 275, 1-(4-Fluorophenyl)-N-[3-fluoro-4-[(7-phenylmethoxy-1,5-naphthyridin-4-yl)oxy]phenyl]-6-methyl-2-oxopyridine-3-carboxamide]
- IC50 [1]: < 0.1 µM
- IC50 [2]: 0.1 to 0.3 µM
- IC50 [3]: < 0.1 µM
- IC50 [4]: < 0.1 µM

SMILES: CCn1cc(C(=O)Nc2ccc(Oc3ccnc4cc(OC)cnc34)cc2)c(=O)c(-c2ccc(F)cc2)c1CO [Compound 274, 1-Ethyl-5-(4-fluorophenyl)-6-(hydroxymethyl)-N-[4-[(7-methoxy-1,5-naphthyridin-4-yl)oxy]phenyl]-4-oxopyridine-3-carboxamide]
- IC50 [1]: < 0.1 µM
- IC50 [2]: < 0.1 µM
- IC50 [3]: < 0.1 µM
- IC50 [4]: > 0.3 µM

SMILES: COc1ccc2nccc(Oc3ccc(NC(=O)c4nccn(-c5ccc(F)cc5)c4=O)cc3F)c2n1 [Compound 380, N-[3-fluoro-4-[(6-methoxy-1,5-naphthyridin-4-yl)oxy]phenyl]-4-(4-fluorophenyl)-3-oxopyrazine-2-carboxamide]
- IC50 [1]: < 0.1 µM
- IC50 [2]: < 0.1 µM
- IC50 [3]: < 0.1 µM
- IC50 [4]: > 0.3 µM

SMILES: COc1cc2nccc(Oc3ccc(NC(=O)C4=C5CCCN5CC(c5ccc(F)cc5)C4=O)cc3F)c2nc1OC (single isomer, unassigned; enantiomer 1) [Compound 374, N-[4-[(6,7-dimethoxy-1,5-naphthyridin-4-yl)oxy]-3-fluorophenyl]-6-(4-fluorophenyl)-7-oxo-2,3,5,6-tetrahydro-1H-indolizine-8-carboxamide, enantiomer 1]
- IC50 [1]: < 0.1 µM
- IC50 [2]: < 0.1 µM
- IC50 [3]: < 0.1 µM
- IC50 [4]: > 0.3 µM
